Measured values: patent US11319315B2, “Cyclohexyl acid triazole azoles as LPA antagonists” (BRISTOL-MYERS SQUIBB COMPANY, priority 2017, dated 2022)
Read-outs that look alike come from different tables or passages of the source.

Biological target: T1, human LPA1 (Homo sapiens, UniProt Q92633)
T1 construct: expressed in transfected cells; host or cells: Chinese hamster ovary (CHO) cells
Experiment: LPA1 functional antagonist assay (LPA-induced calcium flux in CHO cells overexpressing human LPA1)
Type: cell-based
Conditions: read-out: hLPA1 IC50
Summary of the method: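 Calcium flux was triggered by 10 nM LPA after 20 min room-temperature compound pre-incubation (final 0.08 nM to 5 μM, 0.5% DMSO) in human LPA1-overexpressing CHO cells carrying calcium dye. Buffer: HBSS with Ca/Mg, 20 mM HEPES, 0.1% fatty-acid-free BSA; IC50s from 4-parameter logistic fits.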

[1] = inhibition of calcium flux induced by 10 nM LPA, CHO cells overexpressing human LPA1

T1 sequence (Q92633 whole entry): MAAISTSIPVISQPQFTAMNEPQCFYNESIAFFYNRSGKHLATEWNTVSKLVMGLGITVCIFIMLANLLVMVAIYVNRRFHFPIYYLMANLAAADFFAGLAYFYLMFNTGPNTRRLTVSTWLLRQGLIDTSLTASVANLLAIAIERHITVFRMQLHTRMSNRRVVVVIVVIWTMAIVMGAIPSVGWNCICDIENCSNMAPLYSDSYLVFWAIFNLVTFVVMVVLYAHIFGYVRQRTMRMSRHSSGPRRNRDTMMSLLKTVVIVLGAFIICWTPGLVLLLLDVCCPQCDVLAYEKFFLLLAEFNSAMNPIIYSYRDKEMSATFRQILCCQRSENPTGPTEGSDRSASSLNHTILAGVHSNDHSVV

Row | SMILES | IC50 [1] | IC50
1 | Cc1nc(-c2nnn(C)c2COc2noc(CC3CC3)n2)ccc1O[C@H]1CCC[C@H](C(=O)O)C1 [Example 117, (1S,3S)-3-((6-(5-(((5-(cyclopropylmethyl)-1,2,4-oxadiazol-3-yl)oxy)methyl)-1-methyl-1H-1,2,3-triazol-4-yl)-2-methylpyridin-3-yl)oxy)cyclohexane-1-carboxylic acid] | 11 nM | 
2 | Cc1nc(-c2nnn(C)c2Cn2cc(Cc3ccccc3)cn2)ccc1O[C@H]1CCC[C@H](C(=O)O)C1 [Example 80, (1 S,3 S)-3-((6-(5-((4-benzyl-1H-pyrazol-1-yl)methyl)-1-methyl-1H-1,2,3-triazol-4-yl)-2-methylpyridin-3-yl)oxy)cyclohexane-1-carboxylic acid] | 15 nM | 
3 | Cc1nc(-c2nnn(C)c2Cn2cc(COc3ccccc3)nn2)ccc1O[C@H]1CCC[C@H](C(=O)O)C1 [Example 83] | 135 nM | 
4 | Cc1nc(-c2nnn(C)c2Cc2nnc(Cc3ccc(F)cc3)o2)ccc1O[C@H]1CCC[C@H](C(=O)O)C1 [Example 77] | 260 nM | 
5 | Cc1nc(-c2nnn(C)c2Cn2nnnc2Cc2ccccc2)ccc1O[C@H]1CCC[C@H](C(=O)O)C1 [Example 110] | 207 nM | 
6 | Cc1nc(-c2nnn(C)c2CNc2noc(CCC(C)C)n2)ccc1O[C@H]1CCC[C@H](C(=O)O)C1 [Example 69] | 15 nM | 
7 | Cc1nc(-c2nnn(C)c2Cc2nnc(-c3ccccc3)o2)ccc1O[C@H]1CCC[C@H](C(=O)O)C1 [Example 76] | 290 nM | 
8 | Cc1nc(-c2nnn(C)c2CNc2nc(C(C)C)no2)ccc1O[C@H]1CCC[C@H](C(=O)O)C1 [Example 59] | 495 nM | 
9 | CCc1nc(-c2nnn(C)c2Cn2cc(Cc3ccccc3)nn2)ccc1O[C@H]1CCC[C@H](C(=O)O)C1 [Example 95] | 7 nM | 
10 | Cc1nc(-c2nnn(C)c2COc2cc(-c3ccccn3)on2)ccc1O[C@H]1CCC[C@H](C(=O)O)C1 [Example 133] | 208 nM | 
11 | Cc1sc(NCc2c(-c3ccc(O[C@H]4CCC[C@H](C(=O)O)C4)cn3)nnn2C)nc1-c1ccccn1 [Example 98] | 1050 nM | 
12 | Cc1nc(-c2nnn(C)c2CNc2noc(C(C)(C)C)n2)ccc1O[C@H]1CCC[C@H](C(=O)O)C1 [Example 155] | 85 nM | 
13 | Cc1nc(-c2nnn(C)c2CNc2cnn(C3CCCC3)n2)ccc1O[C@H]1CCC[C@H](C(=O)O)C1 [Example 28] | 39 nM | 
14 | CCc1cnc(NCc2c(-c3ccc(O[C@H]4CCC[C@H](C(=O)O)C4)c(C)n3)nnn2C)o1 [Example 19] | 106 nM | 
15 | CCc1nc(-c2nnn(C)c2Cn2cc(CC3CC3)nn2)ccc1O[C@H]1CCC[C@H](C(=O)O)C1 [Example 97] | 8 nM | 
16 | Cc1nc(-c2nnn(C)c2CNc2cc(C(C)C)no2)ccc1O[C@H]1CCC[C@H](C(=O)O)C1 [Example 168] | 84 nM | 
17 | Cc1nc(-c2nnn(C)c2CNc2ncn(Cc3ccccc3)n2)ccc1O[C@H]1CCC[C@H](C(=O)O)C1 [Example 34] | 332 nM | 
18 | Cc1nc(-c2nnn(C)c2CNc2nc(C(F)(F)F)ns2)ccc1O[C@H]1CCC[C@H](C(=O)O)C1 [Example 119] | 60 nM | 
19 | Cc1nc(-c2nnn(C)c2CNc2ncn(-c3cc(F)cc(F)c3)n2)ccc1O[C@H]1CCC[C@H](C(=O)O)C1 [Example 40] | 46 nM | 

Other lines, results leading:

Row | IC50 [1] | IC50 | SMILES
20 | 35 nM |  | Cc1nc(-c2nnn(C)c2Cn2ncc(C(C)C)n2)ccc1O[C@H]1CCC[C@H](C(=O)O)C1 [Example 272, (1S,3S)-3-((6-(5-((4-isopropyl-2H-1,2,3-triazol-2-yl)methyl)-1-methyl-1H-1,2,3-triazol-4-yl)-2-methylpyridin-3-yl)oxy)cyclohexane-1-carboxylic acid]
21 | 243 nM |  | Cc1nc(-c2nnn(C)c2Cn2nnc(-c3ccc(F)cc3)n2)ccc1O[C@H]1CCC[C@H](C(=O)O)C1 [Example 322, (1S,3S)-3-((6-(5-((5-(4-fluoro-phenyl)-2H-tetrazol-2-yl)methyl)-1-methyl-1H-1,2,3-triazol-4-yl)-2-methylpyridin-3-yl)oxy)cyclo-hexane-1-carboxylic acid]
22 | 111 nM |  | CCCCc1nnnn1Cc1c(-c2ccc(O[C@H]3CCC[C@H](C(=O)O)C3)cn2)nnn1C [Example 256, (1S,3S)-3-((6-(5-((5-butyl-1H-tetrazol-1-yl)methyl)-1-methyl-1H-1,2,3-triazol-4-yl)pyridin-3-yl)oxy)cyclohexane-1-carboxylic acid]
23 | 98 nM |  | Cc1nc(-c2nnn(C)c2Cn2nnc(COc3ccccc3)n2)ccc1O[C@H]1CCC[C@H](C(=O)O)C1 [Example 300, (1S,3S)-3-{[2-methyl-6-(1-methyl-5-{[5-(phenoxymethyl)-2H-1,2,3,4-tetrazol-2-yl]methyl}-1H-1,2,3-triazol-4-yl)pyridin-3-yl]oxy}cyclohexane-1-carboxylic acid]
24 | 30 nM |  | Cc1nc(-c2nnn(C)c2CNc2noc(CCC3CCC3)n2)c(F)cc1O[C@H]1CCC[C@H](C(=O)O)C1 [Example 278, (1S,3S)-3-((6-(5-(((5-(2-cyclobutylethyl)-1,2,4-oxadiazol-3-yl)amino)methyl)-1-methyl-1H-1,2,3-triazol-4-yl)-5-fluoro-2-methylpyridin-3-yl)oxy)cyclohexane-1-carboxylic acid]
25 |  | 1240 nM | Cc1nc(-c2nnn(C)c2CN(CC2CC2)c2nnn(CC3CC3)n2)ccc1O[C@H]1CCC[C@H](C(=O)O)C1 [Example 377, (1S,3S)-3-((6-(5-(((cyclopropyl-methyl)(2-(cyclopropylmethyl)-2H-tetrazol-5-yl)amino)methyl)-1-methyl-1H-1,2,3-triazol-4-yl)-2-methylpyridin-3-yl)oxy)cyclohexane-1-carboxylic acid]
26 | 99 nM |  | Cc1nc(-c2nnn(C)c2Cn2nnc(C(C)C)n2)ccc1O[C@H]1CCC[C@H](C(=O)O)C1 [Example 299, (1S,3S)-3-{[2-methyl-6-(1-methyl-5-{[5-(propan-2-yl)-2H-1,2,3,4-tetrazol-2-yl]methyl}-1H-1,2,3-triazol-4-yl)pyridin-3-yl]oxy}cyclo-hexane-1-carboxylic acid]
27 | 8 nM |  | Cc1nc(-c2nnn(C)c2Cc2noc(Cc3ccccc3)n2)ccc1O[C@H]1CCC[C@H](C(=O)O)C1 [Example 237, (1S,3S)-3-((6-(5-((5-benzyl-1,2,4-oxadiazol-3-yl)methyl)-1-methyl-1H-1,2,3-triazol-4-yl)-2-methylpyridin-3-yl)oxy)cyclohexane-1-carboxylic acid]
28 |  | 73 nM | CCCc1nsc(NCc2c(-c3ccc(O[C@H]4CCC[C@H](C(=O)O)C4)c(CC)n3)nnn2C)n1 [Example 399, (1S,3S)-3-((2-ethyl-6-(1-methyl-5-(((3-propyl-1,2,4-thiadiazol-5-yl)amino)methyl)-1H-1,2,3-triazol-4-yl)pyridin-3-yl)oxy)cyclohexane-1-carboxylic acid]
29 | 243 nM |  | CCCOCc1nnnn1Cc1c(-c2ccc(O[C@H]3CCC[C@H](C(=O)O)C3)c(C)n2)nnn1C [Example 305, (1S,3S)-3-{[2-methyl-6-(1-methyl-5-{[5-(propoxymethyl)-1H-1,2,3,4-tetrazol-1-yl]methyl}-1H-1,2,3-triazol-4-yl)pyridin-3-yl]oxy}cyclohexane-1-carboxylic acid]
30 | 43 nM |  | Cc1nc(-c2nnn(C)c2Cn2nnc(OCC3CC(F)(F)C3)n2)ccc1O[C@H]1CCC[C@H](C(=O)O)C1 [Example 338]
31 | 79 nM |  | Cc1nc(-c2nnn(C)c2Cc2nc(-c3ccccc3)no2)ccc1O[C@H]1CCC[C@H](C(=O)O)C1 [Example 245, (1S,3S)-3-((2-methyl-6-(1-methyl-5-((3-phenyl-1,2,4-oxadiazol-5-yl)methyl)-1H-1,2,3-triazol-4-yl)pyridin-3-yl)oxy)cyclohexane-1-carboxylic acid]
32 | 531 nM |  | CCCc1nnn(Cc2c(-c3ccc(O[C@H]4CCC[C@H](C(=O)O)C4)cn3)nnn2C)n1 [Example 252, (1S,3S)-3-((6-(1-methyl-5-((5-propyl-2H-tetrazol-2-yl)methyl)-1H-1,2,3-triazol-4-yl)pyridin-3-yl)oxy)cyclohexane-1-carboxylic acid]
33 | 40 nM |  | Cc1nc(-c2nnn(C)c2Cn2cc(CC3CC3)nn2)ccc1O[C@H]1CCC[C@H](C(=O)O)C1 [Example 265, (1S,3S)-3-((6-(5-((4-(cyclopropyl-methyl)-1H-1,2,3-triazol-1-yl)methyl)-1-methyl-1H-1,2,3-triazol-4-yl)-2-methylpyridin-3-yl)oxy)cyclohexane-1-carboxylic acid]
34 | 58 nM |  | Cc1nc(-c2nnn(C)c2Cc2nc(CC(C)C)no2)ccc1O[C@H]1CCC[C@H](C(=O)O)C1 [Example 243, (1S,3S)-3-((6-(5-((3-isobutyl-1,2,4-oxadiazol-5-yl)methyl)-1-methyl-1H-1,2,3-triazol-4-yl)-2-methylpyridin-3-yl)oxy)cyclohexane-1-carboxylic acid]
35 | 123 nM |  | Cc1nc(-c2nnn(C)c2CNc2noc(C(C)OC3CC3)n2)ccc1O[C@H]1CCC[C@H](C(=O)O)C1 (mixture of isomers) [Example 226, (1S,3S)-3-((6-(5-(((5-(1-cyclopro-poxyethyl)-1,2,4-oxadiazol-3-yl)amino)methyl)-1-methyl-1H-1,2,3-triazol-4-yl)-2-methylpyridin-3-yl)oxy)cyclohexane-1-carboxylic acid]
36 |  | 207 nM | Cc1nc(-c2nnn(C)c2Cc2nnnn2CC(C)C)ccc1O[C@H]1CCC[C@H](C(=O)O)C1 [Example 374, (1S,3S)-3-((6-(5-((1-isobutyl-1H-tetrazol-5-yl)methyl)-1-methyl-1H-1,2,3-triazol-4-yl)-2-methylpyridin-3-yl)oxy)cyclohexane-1-carboxylic acid]
37 | 41 nM |  | Cc1nc(-c2nnn(C)c2CNc2nnn(-c3ccc(Cl)cc3)n2)ccc1O[C@H]1CCC[C@H](C(=O)O)C1 [Example 384, (1S,3S)-3-((6-(5-(((2-(4-chloro-phenyl)-2H-tetrazol-5-yl)amino)methyl)-1-methyl-1H-1,2,3-triazol-4-yl)-2-methylpyridin-3-yl)oxy)cyclohexane-1-carboxylic acid]
